Source: patent publication US9072729B2, “Method for treating fibrosis and cancer with imidazolium and imidazolinium compounds” (Agency for Science, Technology and Research, priority 2008, dated 2015)

Experiments:
[1] = system: Huh7 cells; experiment: HCC xenograft model (Huh7 cells in Balb/c nude mice); format: in vivo, mouse; conditions: 3 weeks
Method: (§1) Balb/c Nude mice, 5-6 weeks old, were inoculated with 1×10^7 Huh7 cells in 0.2 ml volume of Matrigel/DMEM mix. Since not every mouse developed a tumor after the inoculation of HCC cells, only those with visible tumors (about 8 weeks after inoculation) were used for subsequent experiment. The tumor-bearing mice were randomly divided to the control and the treatment group. (n=3), respectively. Mice in the treatment group had free access to drinking water containing DBZIM (2 grams/liter) only, while mice in the control group had free access to Water only. The compound treatment lasted for 3 weeks. The tumor size was measured weekly, and the tumor volume was calculated using the formula: 0.52×width^2×length.
as §1, with “group” for “group.”, “compound 9 (IBN-9) at 0.6 g/l or 1.5 g/l” for “DBZIM (2 grams/liter)”, “water” for “Water”

[2] = system: MCF-10A; experiment: Growth inhibition assay (MTT), MCF-10A; conditions: 72 h
Method: (§2) The percentage of growth inhibition was determined by using a MTT assay to measure viable cells. For the MTT assay, 1×10^3 cells per well were cultured in 96-well plates and treated with 0 to 100 μM of various types of IMSs for 72 h. After incubation for specified times at 37° C. in a humidified incubator, culture medium replaced with 10 μL of MTT reagent (5 mg/mL) contains 100 μL medium was added to each well and further incubated for 4 h. The reaction was stopped by adding 100 μL of DMSO. Absorbance was measured at 570 nm on a micro plate reader (SpectroMax 190, Molecular Devices). Data were presented from three separate experiments, and the percentage of IMSs induced cell growth inhibition was determined where DMSO-treated cells (control) were taken as 100%.
(§3) First, the cytotoxic effect of these drugs on these cells was investigated using the MTT assay. Cells were seeded into 96 well plates and treated with increasing concentrations of these synthetic organic molecules for 72 h, and then the cytotoxic effect was measured.

[3] = system: MKN 28; experiment: Growth inhibition assay (MTT), MKN 28; format: cell-based, human; conditions: MKN 28, 72 h
Method: as §2, §3

[4] = system: MDAMB231; experiment: Growth inhibition assay (MTT), MDAMB231; format: cell-based, human; conditions: MDAMB231, 72 h
Method: as §2, §3

IC50 [3]: 10 µM | IC50 [4]: 20 µM
Compound: CC(=O)Oc1ccc(Cn2cc[n+](-c3c(C)cc(C)cc3C)c2)cc1.[Cl-] [compound 9, 1-(2,4,6-trimethylphenyl)-3-(4-acetate-benzyl)-imidazolium chloride]
reduction of tumor volume ([1]; 0.6 g/l in drinking water): 43% | body weight or gross pathology ([1]; 0.6 g/l or 1.5 g/l in drinking water): No change in body weight or gross pathology | reduction of tumor volume ([1]; 1.5 g/l in drinking water): 62% | IC50 in normal breast epithelial cells [2]: no IC50
